Measured values published in patent US8927717B1, “Thiochromeno[2,3-c]quinolin-12-one derivatives, preparation method and application thereof” (National Defense Medical Center, priority 2014, dated 2015).

What was measured:
CCRF-CEM = type: cell-based; details: Leukemia; 10^−5 molar; 48 hours; SRB
HL-60(TB) = type: cell-based; details: Leukemia; 10^−5 molar; 48 hours; SRB
K-562 = type: cell-based; details: Leukemia; 10^−5 molar; 48 hours; SRB
MOLT-4 = type: cell-based; details: Leukemia; 10^−5 molar; 48 hours; SRB
RPMI-8226 = type: cell-based; details: Leukemia; 10^−5 molar; 48 hours; SRB
SR = type: cell-based; details: Leukemia; 10^−5 molar; 48 hours; SRB
A549/ATCC = type: cell-based; details: Non-small cell lung cancer; 10^−5 molar; 48 hours; SRB
HOP-62 = type: cell-based; details: Non-small cell lung cancer; 10^−5 molar; 48 hours; SRB
HOP-92 = type: cell-based; details: Non-small cell lung cancer; 10^−5 molar; 48 hours; SRB
NCI-H226 = type: cell-based; details: Non-small cell lung cancer; 10^−5 molar; 48 hours; SRB
NCI-H23 = type: cell-based; details: Non-small cell lung cancer; 10^−5 molar; 48 hours; SRB
NCI-H460 = type: cell-based; details: Non-small cell lung cancer; 10^−5 molar; 48 hours; SRB
NCI-H522 = type: cell-based; details: Non-small cell lung cancer; 10^−5 molar; 48 hours; SRB
COLO 205 = type: cell-based; details: Colon cancer; 10^−5 molar; 48 hours; SRB
HCC-2998 = type: cell-based; details: Colon cancer; 10^−5 molar; 48 hours; SRB
HCT-116 = type: cell-based; details: Colon cancer; 10^−5 molar; 48 hours; SRB
HCT-15 = type: cell-based; details: Colon cancer; 10^−5 molar; 48 hours; SRB
HT29 = type: cell-based; details: Colon cancer; 10^−5 molar; 48 hours; SRB
KM12 = assay: cells; type: cell-based; details: Colon cancer; 10^−5 molar; 48 hours; SRB
SW-620 = type: cell-based; details: Colon cancer; 10^−5 molar; 48 hours; SRB
SF-268 = type: cell-based; details: CNS cancer; 10^−5 molar; 48 hours; SRB
SF-295 = type: cell-based; details: CNS cancer; 10^−5 molar; 48 hours; SRB
SF-539 = type: cell-based; details: CNS cancer; 10^−5 molar; 48 hours; SRB
SNB-19 = type: cell-based; details: CNS cancer; 10^−5 molar; 48 hours; SRB
SNB-75 = type: cell-based; details: CNS cancer; 10^−5 molar; 48 hours; SRB
U251 = type: cell-based; details: CNS cancer; 10^−5 molar; 48 hours; SRB
LOX IMVI = type: cell-based; details: Melanoma; 10^−5 molar; 48 hours; SRB
MALME-3M = type: cell-based; details: Melanoma; 10^−5 molar; 48 hours; SRB
M14 = type: cell-based; details: Melanoma; 10^−5 molar; 48 hours; SRB
MDA-MB-435 = type: cell-based; details: Melanoma; 10^−5 molar; 48 hours; SRB
SK-MEL-2 = type: cell-based; details: Melanoma; 10^−5 molar; 48 hours; SRB
SK-MEL-28 = type: cell-based; details: Melanoma; 10^−5 molar; 48 hours; SRB
SK-MEL-5 = type: cell-based; details: Melanoma; 10^−5 molar; 48 hours; SRB
UACC-257 = type: cell-based; details: Melanoma; 10^−5 molar; 48 hours; SRB
UACC-62 = type: cell-based; details: Melanoma; 10^−5 molar; 48 hours; SRB
IGROV1 = type: cell-based; details: Ovarian cancer; 10^−5 molar; 48 hours; SRB
OVCAR-4 = type: cell-based; details: Ovarian cancer; 10^−5 molar; 48 hours; SRB
OVCAR-5 = type: cell-based; details: Ovarian cancer; 10^−5 molar; 48 hours; SRB
OVCAR-8 = type: cell-based; details: Ovarian cancer; 10^−5 molar; 48 hours; SRB
NCI/ADR-RES = type: cell-based; details: Ovarian cancer; 10^−5 molar; 48 hours; SRB
SK-OV-3 = type: cell-based; details: Ovarian cancer; 10^−5 molar; 48 hours; SRB
786-0 = type: cell-based; details: Renal cancer; 10^−5 molar; 48 hours; SRB
A498 = type: cell-based; details: Renal cancer; 10^−5 molar; 48 hours; SRB
ACHN = type: cell-based; details: Renal cancer; 10^−5 molar; 48 hours; SRB
CAKI-1 = type: cell-based; details: Renal cancer; 10^−5 molar; 48 hours; SRB
RXF 393 = type: cell-based; details: Renal cancer; 10^−5 molar; 48 hours; SRB
SN12C = type: cell-based; details: Renal cancer; 10^−5 molar; 48 hours; SRB
TK-10 = type: cell-based; details: Renal cancer; 10^−5 molar; 48 hours; SRB
UO-31 = type: cell-based; details: Renal cancer; 10^−5 molar; 48 hours; SRB
PC-3 = type: cell-based; details: Prostate cancer; 10^−5 molar; 48 hours; SRB
DU-145 = type: cell-based; details: Prostate cancer; 10^−5 molar; 48 hours; SRB
MCF7 = type: cell-based; details: Breast cancer; 10^−5 molar; 48 hours; SRB
MDA-MB-231/ATCC = type: cell-based; details: Breast cancer; 10^−5 molar; 48 hours; SRB
HS 578T = type: cell-based; details: Breast cancer; 10^−5 molar; 48 hours; SRB
BT-549 = type: cell-based; details: Breast cancer; 10^−5 molar; 48 hours; SRB
T-47D = type: cell-based; details: Breast cancer; 10^−5 molar; 48 hours; SRB
MDA-MB-486 = type: cell-based; details: Breast cancer; 10^−5 molar; 48 hours; SRB
60 cancer cell lines = assay: NCI 60-cell screen, SRB, whole panel (mean, delta, range); type: cell-based; details: 10^−5 molar, 48 hours, SRB; for Growth percent, Delta: delta over the cell panel; for Growth percent, Mean: mean over the cell panel; for Growth percent, Range: range over the cell panel

Structure (SMILES): CNc1nc2ccccc2c2c(=O)c3cc(Cl)ccc3sc12 [Compound N1, 10-Chloro-6-methylamino-12H-thiochromeno[2,3-c]quinolin-12-one]
- Growth percent CCRF-CEM (CCRF-CEM): 79.77%
- Growth percent HL-60(TB) (HL-60(TB)): 131.66%
- Growth percent K-562 (K-562): 40.69%
- Growth percent MOLT-4 (MOLT-4): 86.86%
- Growth percent RPMI-8226 (RPMI-8226): 93.10%
- Growth percent SR (SR): 47.76%
- Growth percent A549/ATCC (A549/ATCC): 51.68%
- Growth percent HOP-62 (HOP-62): 79.39%
- Growth percent HOP-92 (HOP-92): 59.15%
- Growth percent NCI-H226 (NCI-H226): 73.53%
- Growth percent NCI-H23 (NCI-H23): 44.39%
- Growth percent NCI-H460 (NCI-H460): 73.84%
- Growth percent NCI-H522 (NCI-H522): 97.00%
- Growth percent COLO 205 (COLO 205): 94.82%
- Growth percent HCC-2998 (HCC-2998): 105.34%
- Growth percent HCT-116 (HCT-116): 32.49%
- Growth percent HCT-15 (HCT-15): 68.73%
- Growth percent HT29 (HT29): 114.79%
- Growth percent KM12 (KM12): 68.75%
- Growth percent SW-620 (SW-620): 84.37%
- Growth percent SF-268 (SF-268): 70.58%
- Growth percent SF-295 (SF-295): 89.04%
- Growth percent SF-539 (SF-539): 59.86%
- Growth percent SNB-19 (SNB-19): 96.48%
- Growth percent SNB-75 (SNB-75): 67.29%
- Growth percent U251 (U251): 85.19%
- Growth percent LOX IMVI (LOX IMVI): 44.95%
- Growth percent MALME-3M (MALME-3M): 72.46%
- Growth percent M14 (M14): 105.85%
- Growth percent MDA-MB-435 (MDA-MB-435): 84.97%
- Growth percent SK-MEL-2 (SK-MEL-2): 110.10%
- Growth percent SK-MEL-28 (SK-MEL-28): 83.41%
- Growth percent SK-MEL-5 (SK-MEL-5): 80.13%
- Growth percent UACC-257 (UACC-257): 91.23%
- Growth percent UACC-62 (UACC-62): 77.66%
- Growth percent IGROV1 (IGROV1): 67.97%
- Growth percent OVCAR-4 (OVCAR-4): 71.33%
- Growth percent OVCAR-5 (OVCAR-5): 86.91%
- Growth percent OVCAR-8 (OVCAR-8): 31.61%
- Growth percent NCI/ADR-RES (NCI/ADR-RES): 70.95%
- Growth percent SK-OV-3 (SK-OV-3): 88.67%
- Growth percent 786-0 (786-0): 95.51%
- Growth percent A498 (A498): 82.89%
- Growth percent ACHN (ACHN): 84.47%
- Growth percent CAKI-1 (CAKI-1): 68.09%
- Growth percent RXF 393 (RXF 393): 84.52%
- Growth percent SN12C (SN12C): 92.52%
- Growth percent TK-10 (TK-10): 81.21%
- Growth percent UO-31 (UO-31): 65.34%
- Growth percent PC-3 (PC-3): 61.41%
- Growth percent DU-145 (DU-145): 80.29%
- Growth percent MCF7 (Table 2: MCF) (MCF7): 23.26%
- Growth percent MDA-MB-231/ATCC (MDA-MB-231/ATCC): 66.58%
- Growth percent HS 578T (HS 578T): 82.63%
- Growth percent BT-549 (BT-549): 108.49%
- Growth percent T-47D (T-47D): 42.13%
- Growth percent MDA-MB-486 (MDA-MB-486): 8.75%
- Growth percent, Delta (60 cancer cell lines): 66.31%
- Growth percent, Mean (60 cancer cell lines): 75.06%
- Growth percent, Range (60 cancer cell lines): 122.91%
- melting point: 237 to 238 °C

Structure (SMILES): CCC(CC)Nc1nc2ccccc2c2c(=O)c3cc(Cl)ccc3sc12 [Compound N6, 10-Chloro-6-(pentan-3-ylamino)-12H-thiochromeno[2,3-c]quinolin-12-one]
- Growth percent CCRF-CEM (CCRF-CEM): 93.72%
- Growth percent HL-60(TB) (HL-60(TB)): 141.93%
- Growth percent K-562 (K-562): 95.25%
- Growth percent MOLT-4 (MOLT-4): 103.08%
- Growth percent RPMI-8226 (RPMI-8226): 108.60%
- Growth percent SR (SR): 104.59%
- Growth percent A549/ATCC (A549/ATCC): 91.04%
- Growth percent HOP-62 (HOP-62): 95.32%
- Growth percent HOP-92 (HOP-92): 83.26%
- Growth percent NCI-H226 (NCI-H226): 79.22%
- Growth percent NCI-H23 (NCI-H23): 94.17%
- Growth percent NCI-H460 (NCI-H460): 99.42%
- Growth percent NCI-H522 (NCI-H522): 99.02%
- Growth percent COLO 205 (COLO 205): 107.68%
- Growth percent HCC-2998 (HCC-2998): 119.79%
- Growth percent HCT-116 (HCT-116): 99.01%
- Growth percent HCT-15 (HCT-15): 95.35%
- Growth percent HT29 (HT29): 116.70%
- Growth percent KM12 (KM12): 94.04%
- Growth percent SW-620 (SW-620): 104.94%
- Growth percent SF-268 (SF-268): 102.86%
- Growth percent SF-295 (SF-295): 104.18%
- Growth percent SF-539 (SF-539): 95.09%
- Growth percent SNB-19 (SNB-19): 99.01%
- Growth percent SNB-75 (SNB-75): 73.24%
- Growth percent U251 (U251): 97.05%
- Growth percent LOX IMVI (LOX IMVI): 89.35%
- Growth percent MALME-3M (MALME-3M): 92.36%
- Growth percent M14 (M14): 107.34%
- Growth percent MDA-MB-435 (MDA-MB-435): 108.13%
- Growth percent SK-MEL-2 (SK-MEL-2): 104.97%
- Growth percent SK-MEL-28 (SK-MEL-28): 98.40%
- Growth percent SK-MEL-5 (SK-MEL-5): 90.08%
- Growth percent UACC-257 (UACC-257): 99.44%
- Growth percent UACC-62 (UACC-62): 83.74%
- Growth percent IGROV1 (IGROV1): 80.40%
- Growth percent OVCAR-4 (OVCAR-4): 98.77%
- Growth percent OVCAR-5 (OVCAR-5): 99.96%
- Growth percent OVCAR-8 (OVCAR-8): 95.31%
- Growth percent NCI/ADR-RES (NCI/ADR-RES): 101.32%
- Growth percent SK-OV-3 (SK-OV-3): 99.71%
- Growth percent 786-0 (786-0): 108.84%
- Growth percent A498 (A498): 103.44%
- Growth percent ACHN (ACHN): 84.92%
- Growth percent CAKI-1 (CAKI-1): 73.26%
- Growth percent RXF 393 (RXF 393): 93.23%
- Growth percent SN12C (SN12C): 94.28%
- Growth percent TK-10 (TK-10): 138.89%
- Growth percent UO-31 (UO-31): 78.57%
- Growth percent PC-3 (PC-3): 84.63%
- Growth percent DU-145 (DU-145): 109.54%
- Growth percent MCF7 (Table 2: MCF) (MCF7): 67.12%
- Growth percent MDA-MB-231/ATCC (MDA-MB-231/ATCC): 77.83%
- Growth percent HS 578T (HS 578T): 89.81%
- Growth percent BT-549 (BT-549): 109.76%
- Growth percent T-47D (T-47D): 73.62%
- Growth percent MDA-MB-486 (MDA-MB-486): 95.79%
- Growth percent, Delta (60 cancer cell lines): 29.82%
- Growth percent, Mean (60 cancer cell lines): 96.94%
- Growth percent, Range (60 cancer cell lines): 74.81%
- melting point: 160 to 161 °C
